# Assay results: PubChem BioAssay (NCI)
#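 Protocol summary: plate cells (96-well), add compound at 5 concentrations, incubate 48 h, interpolate endpoints linearly. TGI denotes the concentration required for complete inhibition of growth.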
# Assays:
# Assay in all cases: DTP human tumour cell line panel, 48 h
# NCI-H522 lung = system: NCI-H522 lung
# HCT-15 colon = system: HCT-15 colon
# OVCAR-5 ovarian = system: OVCAR-5 ovarian
# SNB-75 CNS = system: SNB-75 CNS
# MALME-3M melanoma = system: MALME-3M melanoma
# ACHN renal = system: ACHN renal
# SNB-19 CNS = system: SNB-19 CNS
# HCT-116 colon = system: HCT-116 colon
# U251 CNS = system: U251 CNS
# OVCAR-4 ovarian = system: OVCAR-4 ovarian
# SW-620 colon = system: SW-620 colon
# CCRF-CEM leukemia = system: CCRF-CEM leukemia
# SK-OV-3 ovarian = system: SK-OV-3 ovarian
# SN12C renal = system: SN12C renal
# IGROV1 ovarian = system: IGROV1 ovarian
# UO-31 renal = system: UO-31 renal
# HT29 colon = system: HT29 colon
# DU-145 prostate = system: DU-145 prostate
# HCC-2998 colon = system: HCC-2998 colon
# KM12 colon = system: KM12 colon
# DMS 273 small cell lung = system: DMS 273 small cell lung
# M19-MEL melanoma = system: M19-MEL melanoma
# SF-295 CNS = system: SF-295 CNS
# DMS 114 small cell lung = system: DMS 114 small cell lung
# MDA-MB-231 breast = system: MDA-MB-231 breast
# M14 melanoma = system: M14 melanoma
# DLD-1 colon = system: DLD-1 colon
# NCI-H23 lung = system: NCI-H23 lung
# BT-549 breast = system: BT-549 breast
# CAKI-1 renal = system: CAKI-1 renal
# SNB-78 CNS = system: SNB-78 CNS
# SK-MEL-28 melanoma = system: SK-MEL-28 melanoma
# EKVX NSCLC = system: EKVX NSCLC
# MOLT-4 leukemia = system: MOLT-4 leukemia
# HS 578T breast = system: HS 578T breast
# PC-3 prostate = system: PC-3 prostate
# RXF 393 renal = system: RXF 393 renal
# 786-0 renal = system: 786-0 renal
# UACC-257 melanoma = system: UACC-257 melanoma
# HL-60(TB) leukemia = system: HL-60(TB) leukemia
# LXFL 529 NSCLC = system: LXFL 529 NSCLC
# HOP-18 NSCLC = system: HOP-18 NSCLC
# OVCAR-3 ovarian = system: OVCAR-3 ovarian
# COLO 205 colon = system: COLO 205 colon
# A498 renal = system: A498 renal
# LOX IMVI melanoma = system: LOX IMVI melanoma
# HOP-92 NSCLC = system: HOP-92 NSCLC
# SK-MEL-2 melanoma = system: SK-MEL-2 melanoma
# UACC-62 melanoma = system: UACC-62 melanoma
# NCI-H460 lung = system: NCI-H460 lung
# NCI-H226 lung = system: NCI-H226 lung
# OVCAR-8 ovarian = system: OVCAR-8 ovarian
# XF 498 CNS = system: XF 498 CNS
# KM20L2 colon = system: KM20L2 colon
# SR leukemia = system: SR leukemia
# RPMI-8226 leukemia = system: RPMI-8226 leukemia
# HOP-62 NSCLC = system: HOP-62 NSCLC
# SF-539 CNS = system: SF-539 CNS
# K-562 leukemia = system: K-562 leukemia
# T-47D breast = system: T-47D breast
# SF-268 CNS = system: SF-268 CNS
# A549 NSCLC = system: A549 NSCLC
# TK-10 renal = system: TK-10 renal
# SK-MEL-5 melanoma = system: SK-MEL-5 melanoma
structure (smiles),measurement,setting,value
CC[C@@]1(O)C(=O)OCc2c1cc1n(c2=O)Cc2c-1nc1ccccc1c2Cl,TGI,NCI-H522 lung,1.28 µM
same,TGI,HCT-15 colon,39.5 µM
same,TGI,OVCAR-5 ovarian,3.65 µM
same,TGI,SNB-75 CNS,0.259 µM
same,TGI,MALME-3M melanoma,12.6 µM
same,TGI,ACHN renal,0.0684 µM
same,TGI,SNB-19 CNS,15.5 µM
same,TGI,HCT-116 colon,1.11 µM
same,TGI,U251 CNS,0.445 µM
same,TGI,OVCAR-4 ovarian,4.61 µM
same,TGI,SW-620 colon,39.7 µM
same,TGI,CCRF-CEM leukemia,0.172 µM
same,TGI,SK-OV-3 ovarian,4.29 µM
same,TGI,SN12C renal,0.683 µM
same,TGI,IGROV1 ovarian,16 µM
same,TGI,UO-31 renal,0.109 µM
same,TGI,HT29 colon,5.62 µM
same,TGI,DU-145 prostate,0.104 µM
same,TGI,HCC-2998 colon,9.58 µM
same,TGI,KM12 colon,1.83 µM
same,TGI,DMS 273 small cell lung,0.578 µM
same,TGI,M19-MEL melanoma,3.43 µM
same,TGI,SF-295 CNS,0.511 µM
same,TGI,DMS 114 small cell lung,2.06 µM
same,TGI,MDA-MB-231 breast,> 80.3 µM
same,TGI,M14 melanoma,0.318 µM
same,TGI,DLD-1 colon,63.4 µM
same,TGI,NCI-H23 lung,0.028 µM
same,TGI,BT-549 breast,4.89 µM
same,TGI,CAKI-1 renal,1.99 µM
same,TGI,SNB-78 CNS,87.5 µM
same,TGI,SK-MEL-28 melanoma,63.9 µM
same,TGI,EKVX NSCLC,33.6 µM
same,TGI,MOLT-4 leukemia,0.113 µM
same,TGI,HS 578T breast,43.3 µM
same,TGI,PC-3 prostate,> 100 µM
same,TGI,RXF 393 renal,0.116 µM
same,TGI,786-0 renal,0.126 µM
same,TGI,UACC-257 melanoma,7.01 µM
same,TGI,HL-60(TB) leukemia,0.132 µM
same,TGI,LXFL 529 NSCLC,34.7 µM
same,TGI,HOP-18 NSCLC,18.3 µM
same,TGI,OVCAR-3 ovarian,4.84 µM
same,TGI,COLO 205 colon,27.4 µM
same,TGI,A498 renal,0.352 µM
same,TGI,LOX IMVI melanoma,0.387 µM
same,TGI,HOP-92 NSCLC,2.07 µM
same,TGI,SK-MEL-2 melanoma,7.72 µM
same,TGI,UACC-62 melanoma,0.107 µM
same,TGI,NCI-H460 lung,0.101 µM
same,TGI,NCI-H226 lung,0.022 µM
same,TGI,OVCAR-8 ovarian,2.13 µM
same,TGI,XF 498 CNS,2.15 µM
same,TGI,KM20L2 colon,28.7 µM
same,TGI,SR leukemia,0.186 µM
same,TGI,RPMI-8226 leukemia,1.42 µM
same,TGI,HOP-62 NSCLC,0.0206 µM
same,TGI,SF-539 CNS,0.022 µM
same,TGI,K-562 leukemia,> 100 µM
same,TGI,T-47D breast,0.349 µM
same,TGI,SF-268 CNS,12.6 µM
same,TGI,A549 NSCLC,3.76 µM
same,TGI,TK-10 renal,80.8 µM
same,TGI,SK-MEL-5 melanoma,0.134 µM
COC(=O)C1=C(C)C(=O)[C@H]2C(C(=O)OC)CCCC[C@@H]12 (stereo not given in full),TGI,NCI-H522 lung,> 100 µM
same,TGI,HCT-15 colon,> 100 µM
same,TGI,OVCAR-5 ovarian,> 100 µM
same,TGI,SNB-75 CNS,> 100 µM
same,TGI,MALME-3M melanoma,> 100 µM
same,TGI,ACHN renal,> 100 µM
same,TGI,SNB-19 CNS,> 100 µM
same,TGI,HCT-116 colon,> 100 µM
same,TGI,U251 CNS,> 100 µM
same,TGI,OVCAR-4 ovarian,> 100 µM
same,TGI,SW-620 colon,> 100 µM
same,TGI,CCRF-CEM leukemia,> 100 µM
same,TGI,SK-OV-3 ovarian,> 100 µM
same,TGI,SN12C renal,> 100 µM
same,TGI,IGROV1 ovarian,> 100 µM
same,TGI,UO-31 renal,> 100 µM
same,TGI,HT29 colon,> 100 µM
same,TGI,HCC-2998 colon,> 100 µM
same,TGI,KM12 colon,> 100 µM
same,TGI,DMS 273 small cell lung,> 100 µM
same,TGI,M19-MEL melanoma,> 100 µM
same,TGI,SF-295 CNS,> 100 µM
same,TGI,DMS 114 small cell lung,99 µM
same,TGI,M14 melanoma,> 100 µM
same,TGI,DLD-1 colon,> 100 µM
same,TGI,NCI-H23 lung,> 100 µM
same,TGI,CAKI-1 renal,> 100 µM
same,TGI,SNB-78 CNS,> 100 µM
same,TGI,SK-MEL-28 melanoma,> 100 µM
same,TGI,EKVX NSCLC,> 100 µM
same,TGI,MOLT-4 leukemia,> 100 µM
same,TGI,RXF 393 renal,> 100 µM
same,TGI,786-0 renal,> 100 µM
same,TGI,UACC-257 melanoma,> 100 µM
same,TGI,HL-60(TB) leukemia,> 100 µM
same,TGI,LXFL 529 NSCLC,> 100 µM
same,TGI,HOP-18 NSCLC,> 100 µM
same,TGI,COLO 205 colon,> 100 µM
same,TGI,A498 renal,> 100 µM
same,TGI,HOP-92 NSCLC,> 100 µM
same,TGI,SK-MEL-2 melanoma,> 100 µM
same,TGI,UACC-62 melanoma,> 100 µM
same,TGI,NCI-H460 lung,> 100 µM
same,TGI,NCI-H226 lung,> 100 µM
same,TGI,OVCAR-8 ovarian,> 100 µM
same,TGI,XF 498 CNS,> 100 µM
same,TGI,KM20L2 colon,> 100 µM
same,TGI,SR leukemia,> 100 µM
same,TGI,RPMI-8226 leukemia,> 100 µM
same,TGI,HOP-62 NSCLC,> 100 µM
same,TGI,SF-539 CNS,> 100 µM
same,TGI,K-562 leukemia,> 100 µM
same,TGI,SF-268 CNS,> 100 µM
same,TGI,A549 NSCLC,> 100 µM
same,TGI,TK-10 renal,> 100 µM
same,TGI,SK-MEL-5 melanoma,> 100 µM
